From ChEMBL document CHEMBL5137093, “Improving Drug Delivery While Tailoring Prodrug Activation to Modulate Cmax and Cmin by Optimization of (Carbonyl)oxyalkyl Linker-Based Prodrugs of Atazanavir” (J Med Chem, 2022) come the findings set out here.

Values after ≈ are worked out from the molar mass of the structure shown.

Data set [1] can be described thus: Aqueous stability of the compound in acetate buffer at pH 4 assessed as compound half life measured after 24 hrs by UPLC analysis. In kind it is physicochemical. The note with it: for t1/2: buffer, pH 4, 24 h, 24 h; for half-life: acetate buffer, pH 4.
Data set [2] is described as follows: Aqueous stability of the compound in phosphate buffer at pH 6.5 assessed as compound half life measured after 24 hrs by UPLC analysis. Type of data set: physicochemical. The note with it: for t1/2: buffer, pH 6.5, 24 h, 24 h; for half-life: phosphate buffer, pH 6.5.
Data set [3] is described as follows: Aqueous solubility of compound at pH 1 by UPLC analysis. Type of data set: physicochemical.
A short description of data set [4]: Aqueous solubility of compound at pH 4 by UPLC analysis. Type of data set: physicochemical.
The nature of data set [5]: Cmax in Sprague-Dawley rat at 3 ml/kg,po measured upto 24 hrs by UPLC-MS/MS analysis. Type of data set: ADME. More on the design: dose 3 ml/kg, time < 24 hrs, route po. The settings on record: in vivo, 24 h.
Data set [6] can be described thus: Tmax in Sprague-Dawley rat at 3 ml/kg,po measured upto 24 hrs by UPLC-MS/MS analysis. Type of data set: ADME. The settings on record: in vivo.
Data set [7] is described as follows: AUClast in Sprague-Dawley rat at 3 ml/kg,po measured upto 24 hrs by UPLC-MS/MS analysis. The settings on record: in vivo, 24 h. Type of data set: ADME. On the set-up: time < 24 hrs, dose 3 ml/kg, route po.
The nature of data set [8]: Relative Cmax ratio of Atazanavir in Sprague-Dawley rat at 3 ml/kg,po measured upto 24 hrs by UPLC-MS/MS analysis. In kind it is ADME. The note with it: in vivo.
Data set [9] can be described thus: Relative AUC ratio of Atazanavir in Sprague-Dawley rat at 3 ml/kg,po measured upto 24 hrs by UPLC-MS/MS analysis. The settings on record: in vivo. In kind it is ADME.
The nature of data set [10]: Fold ratio of total AUC of Atazanavir in Sprague-Dawley rat at 3 ml/kg,po measured upto 24 hrs by UPLC-MS/MS analysis. Type of data set: ADME. The note with it: in vivo.
Data set [11] can be described thus: Ratio of Cmax/Cmin of Atazanavir in Sprague-Dawley rat at 3 ml/kg,po measured after 24 hrs by UPLC-MS/MS analysis. Type of data set: ADME. The note with it: in vivo.
Data set [12] is described as follows: Ratio of AUC of Atazanavir in Sprague-Dawley rat at 3 ml/kg,po measured upto 24 hrs by UPLC-MS/MS analysis. In kind it is ADME. The note with it: in vivo.
Data set [13] in a line: Cmax in Sprague-Dawley rat at 30 ml/kg,po measured upto 24 hrs by UPLC-MS/MS analysis. More on the design: time < 24 hrs, dose 30 ml/kg, route po. The settings on record: in vivo. Type of data set: ADME.
Data set [14] is described as follows: Tmax in Sprague-Dawley rat at 30 ml/kg,po measured upto 24 hrs by UPLC-MS/MS analysis. Type of data set: ADME. The note with it: in vivo.
A short description of data set [15]: AUClast in Sprague-Dawley rat at 30 ml/kg,po measured upto 24 hrs by UPLC-MS/MS analysis. In kind it is ADME. More on the design: time < 24 hrs, dose 30 ml/kg, route po. The settings on record: in vivo.
A short description of data set [16]: Relative Cmax ratio of Atazanavir in Sprague-Dawley rat at 30 ml/kg,po measured upto 24 hrs by UPLC-MS/MS analysis. Type of data set: ADME. The settings on record: in vivo.
Data set [17] can be described thus: Relative AUC ratio of Atazanavir in Sprague-Dawley rat at 30 ml/kg,po measured upto 24 hrs by UPLC-MS/MS analysis. In kind it is ADME. The settings on record: in vivo.
A short description of data set [18]: Fold ratio of total AUC of Atazanavir in Sprague-Dawley rat at 30 ml/kg,po measured upto 24 hrs by UPLC-MS/MS analysis. In kind it is ADME. The settings on record: in vivo.
Data set [19] can be described thus: Ratio of Cmax/Cmin of Atazanavir in Sprague-Dawley rat at 30 ml/kg,po measured after 24 hrs by UPLC-MS/MS analysis. In kind it is ADME. The settings on record: in vivo.
A short description of data set [20]: Ratio of AUC of Atazanavir in Sprague-Dawley rat at 30 ml/kg,po measured upto 24 hrs by UPLC-MS/MS analysis. Type of data set: ADME. The settings on record: in vivo.
Data set [21] in a line: Aqueous solubility of compound at pH 6.5 by UPLC analysis. Type of data set: physicochemical.
A short description of data set [22]: Aqueous stability of the compound in HCL at pH 1 assessed as compound half life measured after 24 hrs by UPLC analysis. Type of data set: physicochemical. The settings on record: aqueous HCl, pH 1.
The mark [23] stands for this setting: aqueous medium, read-out: solubility.

In the case of `COC(=O)N[C@H](C(=O)N[C@@H](Cc1ccccc1)[C@H](CN(Cc1ccc(-c2ccccn2)cc1)NC(=O)[C@@H](NC(=O)OC)C(C)(C)C)OC(=O)OC(OC(=O)[C@H](C(C)C)N(C)C)C(C)C)C(C)(C)C` (stereo in doubt; 5h), the t1/2 in data set [1] is 376.3 h; in [2], 334.3 h. Also, the solubility (commonly the dissolved amount per volume that the medium holds) in data set [3] (buffer) was > 1.85 mg/mL; in data set [4] (buffer), 0.16 mg/mL (≈ 169 µM). Also, the values for the Cmax in data set [5] and in data set [13] were 1.88 µM and 3.58 µM, respectively. Further, the Tmax – broadly, the time at which the peak concentration occurs – in [6] (po, 24 h) is 0.5 h; in [14], 3 h. Moreover, the AUClast in data set [7] was 11628 nM·h. In addition, the Ratio in data set [8] amounted to 2.7; in data set [9] it was 11.8; in [10], 42.1; in data set [11], 22.7; in data set [12] it was 2.57; in data set [16] it was 0.14. The Ratio is 0.29 in [17], 3.38 in [18], 10.8 in data set [19] and 10.81 in data set [20]. Besides, the exposure AUC(0-t) (usually exposure summed from dosing to a finite time, without extrapolation to infinity) at 24 h in data set [15] came out at 64600 nM·h.

In the case of `COC(=O)N[C@H](C(=O)N[C@@H](Cc1ccccc1)[C@H](CN(Cc1ccc(-c2ccccn2)cc1)NC(=O)[C@@H](NC(=O)OC)C(C)(C)C)OC(=O)OC(OC(=O)C1(N)CC1)C(C)C)C(C)(C)C` (stereo in doubt; 3y), the solubility was > 1.8 mg/mL in data set [3] (buffer), > 2.1 mg/mL in data set [4] (buffer) and 0.028 mg/mL (≈ 31 µM) in data set [21] (buffer). In addition, the maximum concentration (Cmax) – broadly, the highest concentration seen after dosing – in data set [5] is 0.835 µM. The Tmax in data set [6] (po, 24 h) worked out at 0.4 h. Also, the AUClast in data set [7] amounted to 4874 nM·h. The Ratio in [8] is 2.1; in data set [9] it was 9.5; in [10], 22.2; in data set [11] it was 31.8; in data set [12], 1.34.

With `COC(=O)N[C@H](C(=O)N[C@@H](Cc1ccccc1)[C@H](CN(Cc1ccc(-c2ccccn2)cc1)NC(=O)[C@@H](NC(=O)OC)C(C)(C)C)OC(=O)OC(OC(=O)[C@@H](N)C(C)C)C(C)(C)C)C(C)(C)C` (mixture of isomers), the half-life in [22] and in [1] was > 500 h each time. Besides, the t1/2 in [2] turned out to be 65.4 h. Besides, the results for the solubility in data set [3] (setting [23]), in data set [4] (setting [23]) and in data set [21] (setting [23]) were > 0.8 mg/mL, > 0.87 mg/mL and < 0.001 mg/mL, respectively. In data set [5], this compound registered a Cmax of 0.67 µM. Moreover, the time of peak concentration (Tmax) in data set [6] (Sprague-Dawley, read-out: Tmax) worked out at 0.4 h. Besides, the AUClast in [7] was found to be 1057 nM·h. Besides, the Ratio in data set [8] was 5.8; in data set [9], 10.4; in data set [10] it was 13.2; in data set [11], 235.5; in data set [12], 0.26.

As for `COC(=O)N[C@H](C(=O)N[C@@H](Cc1ccccc1)[C@H](CN(Cc1ccc(-c2ccccn2)cc1)NC(=O)[C@@H](NC(=O)OC)C(C)(C)C)OC(=O)OC(OC(=O)[C@H](C(C)C)N(C)C)C(C)C)C(C)(C)C` (stereo in doubt; 5g), the half-life in [22], in [1] and in [2] was > 500 h throughout. For the same compound, the solubility is > 0.42 mg/mL in [3] (buffer), 0.14 mg/mL (≈ 148 µM) in data set [4] (setting [23]) and < 0.001 mg/mL in [21] (setting [23]). Moreover, the Cmax in data set [5] was determined as 0.382 µM. Besides, the time to peak (Tmax) in data set [6] (Sprague-Dawley, read-out: Tmax) amounted to 0.7 h. This compound yielded an AUClast in [7] of 996 nM·h. Moreover, the Ratio in data set [8] amounted to 2.1; in data set [9], 4.4; in [10], 7; in [11], 194.1; in [12], 0.59.

Turning to `COC(=O)N[C@H](C(=O)N[C@@H](Cc1ccccc1)[C@H](CN(Cc1ccc(-c2ccccn2)cc1)NC(=O)[C@@H](NC(=O)OC)C(C)(C)C)OC(=O)OC(OC(=O)[C@@H](NC(=O)[C@@H](N)C(C)C)C(C)C)C(C)C)C(C)(C)C` (stereo in doubt; 6f), the results for the t1/2 in [1] and in data set [2] were 376.3 h and 94 h, respectively. Also, the solubility in data set [3] (buffer) is > 1 mg/mL; in [4] (buffer), > 1.4 mg/mL; in data set [21] (buffer) it was 0.008 mg/mL (≈ 7.85 µM). Further, the Cmax in data set [5] stood at 0.235 µM. The AUClast in data set [7] is 208 nM·h. The Ratio in [8] came to 2.7; in data set [9], 3.7; in [10], 4.2; in data set [11], 1414; in [12], 0.15.

As for `COC(=O)N[C@H](C(=O)N[C@@H](Cc1ccccc1)[C@H](CN(Cc1ccc(-c2ccccn2)cc1)NC(=O)[C@@H](NC(=O)OC)C(C)(C)C)OC(=O)OC(OC(=O)[C@@H](N)C(C)C)C1CCCCC1)C(C)(C)C` (stereo in doubt; 4n), the half-life – broadly, the time in which the quantity being followed falls by half – in data set [22] is > 500 h; in data set [1], 334 h. In [2], the t1/2 amounted to 27.4 h. Besides, the solubility was > 1.3 mg/mL in data set [3] (setting [23]), > 1.4 mg/mL in data set [4] (setting [23]) and < 0.001 mg/mL in data set [21] (setting [23]). Moreover, the concentration in data set [5] peaked (Cmax) at 0.991 µM. Also, the Tmax in data set [6] (Sprague-Dawley, read-out: Tmax) was 0.5 h. This compound returned an AUClast in [7] of 1454 nM·h. In addition, the Ratio in data set [8] worked out at 1.3; in data set [9] it was 1.5; in data set [10], 5.3; in data set [12], 2.47.

As to `COC(=O)N[C@H](C(=O)N[C@@H](Cc1ccccc1)[C@H](CN(Cc1ccc(-c2ccccn2)cc1)NC(=O)[C@@H](NC(=O)OC)C(C)(C)C)OC(=O)OC(OC(=O)[C@@H](NC(=O)[C@@H](N)C(C)C)C(C)C)C(C)C)C(C)(C)C` (stereo in doubt; 6e), the half-life was > 500 h in data set [22], > 500 h in data set [1] and 167 h in data set [2]. The solubility in data set [3] (setting [23]) was > 1.6 mg/mL; in data set [4] (setting [23]), > 1.1 mg/mL; in data set [21] (buffer), 0.076 mg/mL (≈ 74.6 µM). The Cmax in data set [5] was 0.003 µM. Also, the Tmax in data set [6] (Sprague-Dawley, read-out: Tmax) was found to be 0.3 h. In data set [7], this compound showed an AUClast of 0.5 nM·h. In addition, the Ratio in [8] stood at 3.3; in data set [9], 3.3; in data set [10] it was 3.3; in data set [11] it was 2936.7; in [12] it was 0.0004.
